Patent publication US12544348B2, “Methods for treating APOE4/4-associated disorders” (The Regents of the University of California, priority 2018, dated 2026)

System: hippocampal slices from apoE4-KI mice
Experiment: Brain slice electrophysiological recordings (LTP, input-output) after in vivo treatment
Conditions: 0.2 mg/kg for 8 weeks
Text: Brain slice electrophysiological recordings and data analyses. For long-term potentiation (LTP) recording study, apoE4-KI mice were randomly allocated to vehicle (n=6, age 15.2±0.56 months) and bumetanide (n=3, age 15.1±0.06) treatment groups. ApoE3-KI mice were similarly allocated into vehicle (n=6, age 15.5±0.11) and bumetanide (n-3, age 15.57±0.19) treatment groups. For input/output recording study, apoE4-KI mice were randomly allocated to vehicle (n=3, age 15.1±0.06 months) and bumetanide (n=3, age 15.1±0.06) treatment groups. ApoE3-KI mice were similarly allocated into vehicle (n=7, age 15.3±0.06) and bumetanide (n=3, age 15.57±0.29) treatment groups. […]
Field post-synaptic potentials (fPSPs) were elicited by orthodromic stimulation of Schaffer collaterals by concentric bipolar stimulating electrode (FHC, Inc., USA) connected to a constant voltage isolated stimulator (DS2A-MKII, Digitimer North America) and placed in CA2 stratum radiatum. fPSPs were recorded with a glass borosilicate microelectrode filled with ACSF and placed in CA1 stratum radiatum. Signals were sampled and digitized by MultiClamp 700B amplifier and Digidata 1550B1 acquisition system with pClamp10 software (Molecular Devices, USA), and analyzed using IgorPro6 software (Wavemetrics Inc., USA) running custom macros. fPSP slopes were analyzed as the linear fit slope values between 10% and 90% of fPSP peak. […]

CCCCNc1cc(C(=O)O)cc(S(N)(=O)=O)c1Oc1ccccc1 [bumetanide, 3-(butylamino)-4-phenoxy-5-sulfamoylbenzoic acid]
long-term potentiation (LTP) in CA1 region of hippocampal slices (aged (16-month-old) apoE4-KI mice, theta burst stimulation): completely rescued LTP deficit | neuronal hyperexcitability in CA1 region (input-output curve analysis) (aged apoE4-KI mice): normalized
